Columns and labels:
GluN1/2A NMDARs = GluN1/2A NMDARs (Rattus norvegicus, UniProt P35439+Q00959); type: cell-based; conditions: 10 μM compound; 100 μM NMDA plus 10 μM glycine; voltage pulse to +60 mV
GluN1/2A receptors = GluN1/2A receptors (Rattus norvegicus, UniProt P35439+Q00959); type: cell-based; conditions: for δ, fraction of the total transmembrane voltage field felt by the blocker at its binding site: calculated from V0 by Equation 4; for Hill coefficient (nH): tsA201 cells, GluN1/2A, 1 mM glutamate, −65 mV, fit of Equation 2; for V0, change in voltage that results in an e-fold change in the IC50: roughly twice the IC50 of each drug (3 μM 5, 5 μM 7, 2 μM 8, 1 μM 11), 9 voltages −105 to +55 mV, fit of Equation 3
GluN1/2A receptors, sequence (Q00959 23-1464, other chains not shown): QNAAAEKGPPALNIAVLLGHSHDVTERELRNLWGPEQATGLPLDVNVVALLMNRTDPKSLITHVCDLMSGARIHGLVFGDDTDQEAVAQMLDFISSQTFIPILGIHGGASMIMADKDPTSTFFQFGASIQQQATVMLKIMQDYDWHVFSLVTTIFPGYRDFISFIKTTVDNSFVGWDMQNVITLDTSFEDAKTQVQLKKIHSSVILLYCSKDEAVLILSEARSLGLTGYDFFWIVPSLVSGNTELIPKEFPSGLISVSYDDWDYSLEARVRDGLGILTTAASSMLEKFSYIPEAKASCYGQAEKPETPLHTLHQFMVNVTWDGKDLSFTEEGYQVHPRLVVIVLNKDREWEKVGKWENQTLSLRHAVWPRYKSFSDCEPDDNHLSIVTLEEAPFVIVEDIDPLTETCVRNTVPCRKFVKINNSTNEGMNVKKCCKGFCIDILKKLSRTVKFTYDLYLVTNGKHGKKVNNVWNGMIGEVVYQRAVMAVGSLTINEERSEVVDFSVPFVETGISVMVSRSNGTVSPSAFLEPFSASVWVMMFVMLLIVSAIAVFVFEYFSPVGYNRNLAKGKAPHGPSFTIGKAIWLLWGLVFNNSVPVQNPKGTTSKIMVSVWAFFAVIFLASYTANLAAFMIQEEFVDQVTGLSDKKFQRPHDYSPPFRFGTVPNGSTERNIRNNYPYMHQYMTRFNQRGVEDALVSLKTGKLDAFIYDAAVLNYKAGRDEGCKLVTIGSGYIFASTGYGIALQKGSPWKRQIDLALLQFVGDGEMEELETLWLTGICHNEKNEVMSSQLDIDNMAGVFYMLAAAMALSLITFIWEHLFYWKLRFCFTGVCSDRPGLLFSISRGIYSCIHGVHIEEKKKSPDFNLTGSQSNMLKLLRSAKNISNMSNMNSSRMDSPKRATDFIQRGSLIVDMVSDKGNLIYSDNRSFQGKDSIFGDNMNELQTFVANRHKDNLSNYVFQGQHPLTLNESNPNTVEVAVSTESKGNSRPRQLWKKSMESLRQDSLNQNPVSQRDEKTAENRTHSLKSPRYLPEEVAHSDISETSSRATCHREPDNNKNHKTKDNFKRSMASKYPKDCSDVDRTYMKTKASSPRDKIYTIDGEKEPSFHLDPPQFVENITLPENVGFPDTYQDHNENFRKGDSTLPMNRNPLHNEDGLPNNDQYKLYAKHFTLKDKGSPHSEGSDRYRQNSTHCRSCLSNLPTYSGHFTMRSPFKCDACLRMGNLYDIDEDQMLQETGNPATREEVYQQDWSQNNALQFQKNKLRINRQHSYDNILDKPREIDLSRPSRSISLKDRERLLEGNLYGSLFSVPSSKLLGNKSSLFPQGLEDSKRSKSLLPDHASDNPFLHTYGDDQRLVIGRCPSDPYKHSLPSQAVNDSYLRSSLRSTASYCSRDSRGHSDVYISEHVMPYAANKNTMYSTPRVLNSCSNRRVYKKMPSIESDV

GluN1/2A NMDARs, sequence (Q00959 23-1464, other chains not shown): as above

| Structure (SMILES) | percentage block at +60 mV (GluN1/2A NMDARs) [%] | IC50 (GluN1/2A receptors) [µM] | δ, fraction of the total transmembrane voltage field felt by the blocker at its binding site (GluN1/2A receptors) | Hill coefficient (nH) (GluN1/2A receptors) | V0, change in voltage that results in an e-fold change in the IC50 (GluN1/2A receptors) [mV] |
| --- | --- | --- | --- | --- | --- |
| CC12CC3CC(C)(C1)CC(N)(C3)C2 [Compound 5, memantine, reference compound] | 8.1 ± 4.0 | 1.84 ± 0.39 | 0.91 ± 0.08 | 1.07 ± 0.27 | – |
| CC12CC3CC1(C)C1(C)CC3(N)CC21C.Cl [Compound 7, (3,4,8,9-Tetramethyltetracydo[4.4.0.0^3,9.0^4,8]dec-1-yl)amme hydrochloride] | 2.4 ± 5.1 | – | 0.99 ± 0.05 | 0.98 ± 0.08 | 26.5 ± 1.8 |
| CC12CC3CC1(C)C1(C)CC3(CN)CC21C.Cl [Compound 8, (3,4,8,9-Tetramethyltetracydo[4.4.0.0^3,9.0^4,8]dec-1-yl)methylamine hydrochloride] | 14.7 ± 4.5 | – | 0.87 ± 0.05 | 1.01 ± 0.11 | 29.9 ± 1.9 |
